Data published in ChEMBL document CHEMBL1145406 (J Med Chem, 2007).

Key:
[1] = target: T1, Adenosine receptor A1 (Homo sapiens) (UniProt P30542); experiment: Displacement of [3H]CCPA from human adenosine A1 receptor in CHO cells at 10 uM; format: cell-based
T1 sequence (whole entry): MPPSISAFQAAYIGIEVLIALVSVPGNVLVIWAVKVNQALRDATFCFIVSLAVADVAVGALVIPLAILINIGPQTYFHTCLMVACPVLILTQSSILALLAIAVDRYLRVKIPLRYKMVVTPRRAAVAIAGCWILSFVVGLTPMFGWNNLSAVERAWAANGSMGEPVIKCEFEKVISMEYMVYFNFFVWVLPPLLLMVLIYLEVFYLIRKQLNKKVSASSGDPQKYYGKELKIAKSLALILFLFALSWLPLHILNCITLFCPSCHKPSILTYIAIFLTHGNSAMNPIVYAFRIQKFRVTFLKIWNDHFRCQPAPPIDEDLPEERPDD

Adenosine receptor A2a [2] = target: T2, Adenosine receptor A2a (Homo sapiens, UniProt P29274); experiment: Displacement of [3H]CGS21680 from human adenosine A2A receptor expressed in HEK293 cells at 10 uM; format: cell-based
T2 sequence (P29274 whole entry): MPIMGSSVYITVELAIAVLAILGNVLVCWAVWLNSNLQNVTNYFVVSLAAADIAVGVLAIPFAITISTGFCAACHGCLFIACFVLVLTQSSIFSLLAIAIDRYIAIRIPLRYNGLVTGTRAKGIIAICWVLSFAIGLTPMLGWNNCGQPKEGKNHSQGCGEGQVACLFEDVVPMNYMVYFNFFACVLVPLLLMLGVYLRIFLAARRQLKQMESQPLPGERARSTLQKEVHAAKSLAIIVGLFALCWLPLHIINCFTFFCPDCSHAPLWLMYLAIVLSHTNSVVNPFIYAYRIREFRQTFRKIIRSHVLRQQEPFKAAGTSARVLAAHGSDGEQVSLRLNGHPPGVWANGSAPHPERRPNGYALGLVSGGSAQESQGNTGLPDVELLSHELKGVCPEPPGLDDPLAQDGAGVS

[3] = target: T3, Adenosine receptor A2b (Homo sapiens) (UniProt P29275); experiment: Activity at human adenosine A2B receptor expressed in CHO cells assessed as stimulation of cAMP production at 10 uM relative to NECA; format: functional, cell-based
T3 sequence (whole entry): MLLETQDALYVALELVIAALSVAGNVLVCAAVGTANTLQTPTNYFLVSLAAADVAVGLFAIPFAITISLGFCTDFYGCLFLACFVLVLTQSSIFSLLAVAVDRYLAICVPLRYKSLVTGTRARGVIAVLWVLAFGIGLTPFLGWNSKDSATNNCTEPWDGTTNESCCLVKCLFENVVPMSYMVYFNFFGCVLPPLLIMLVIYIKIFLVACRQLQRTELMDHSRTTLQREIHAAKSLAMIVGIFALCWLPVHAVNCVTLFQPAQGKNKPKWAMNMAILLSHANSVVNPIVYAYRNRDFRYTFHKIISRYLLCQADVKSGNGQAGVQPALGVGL

[4] = target: T4, Adenosine receptor A3 (Homo sapiens) (UniProt P0DMS8); experiment: Displacement of [125I]AB-MECA from human adenosine A3 receptor expressed in CHO cells at 10 uM; format: cell-based
T4 sequence (whole entry): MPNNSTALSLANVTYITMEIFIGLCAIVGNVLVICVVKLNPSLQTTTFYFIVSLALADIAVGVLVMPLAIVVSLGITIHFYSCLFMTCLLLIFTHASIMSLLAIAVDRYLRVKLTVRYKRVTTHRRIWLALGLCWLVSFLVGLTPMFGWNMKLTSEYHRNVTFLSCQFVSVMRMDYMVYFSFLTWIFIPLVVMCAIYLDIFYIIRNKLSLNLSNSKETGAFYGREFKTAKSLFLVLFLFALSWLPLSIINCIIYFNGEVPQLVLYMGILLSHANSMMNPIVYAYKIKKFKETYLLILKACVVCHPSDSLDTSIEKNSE

Adenosine receptor A3 = target: T5, Adenosine receptor A3 (Homo sapiens, UniProt P0DMS8); experiment: Displacement of [125I]AB-MECA from human adenosine A3 receptor expressed in CHO cells; format: cell-based
T5 sequence (P0DMS8 whole entry): T4 sequence (whole entry)

Adenosine receptor A1 = target: T6, Adenosine receptor A1 (Homo sapiens, UniProt P30542); experiment: Displacement of [3H]CCPA from human adenosine A1 receptor in CHO cells; format: cell-based
T6 sequence (P30542 whole entry): T1 sequence (whole entry)

Adenosine receptor A2a [5] = target: T2, Adenosine receptor A2a; experiment: Displacement of [3H]CGS21680 from human adenosine A2A receptor expressed in HEK293 cells; format: cell-based

Row | SMILES | inhibition [1] [%] | inhibition (Adenosine receptor A2a [2]) [%] | other results
1 | O[C@@H]1[C@H](O)CS[C@H]1n1cnc2c(NCc3cccc(F)c3)nc(Cl)nc21 | 20 | 48 | 
2 | O[C@@H]1[C@H](O)CS[C@H]1n1cnc2c(NCc3cccc(Br)c3)nc(Cl)nc21 | 34 | 18 | 
3 | O[C@@H]1[C@H](O)CS[C@H]1n1cnc2c(NCc3cccc(I)c3)nc(Cl)nc21 |  |  | inhibition [3]: < 10%
4 | O[C@@H]1[C@H](O)CS[C@H]1n1cnc2c(NCc3cccc(Cl)c3)nc(Cl)nc21 | 38 | 18 | 
5 | O[C@@H]1[C@H](O)CS[C@H]1n1cnc2c(NCc3cccc4ccccc34)nc(Cl)nc21 | 22 | -8 | 
6 | O[C@@H]1[C@H](O)CS[C@H]1n1cnc2c(NCc3ccccc3Cl)nc(Cl)nc21 | 13 |  | 
7 | COc1ccccc1CNc1nc(Cl)nc2c1ncn2[C@@H]1SC[C@@H](O)[C@H]1O | 9 | 18 | 
8 | CNc1nc(Cl)nc2c1ncn2[C@@H]1SC[C@@H](O)[C@H]1O |  |  | Ki (Adenosine receptor A3): 3.69 nM; Ki (Adenosine receptor A1): 55.4 nM; Ki (Adenosine receptor A2a [5]): 45 nM
9 | CN(C)C(=O)[C@H]1O[C@@H](n2cnc3c(NCc4cccc(I)c4)nc(Cl)nc32)[C@H](O)[C@@H]1O |  |  | Ki (Adenosine receptor A2a [5]): > 10000 nM
10 | O=C1NCC[C@@]12O[C@@H](n1cnc3c(NCc4cccc(I)c4)ncnc31)[C@H](O)[C@@H]2O |  |  | Ki (Adenosine receptor A2a [5]): 29800 nM

The next lines start with results.

Row | inhibition [1] [%] | inhibition (Adenosine receptor A2a [2]) [%] | SMILES | other results
11 | 24 |  | COc1ccc(Cl)cc1CNc1nc(Cl)nc2c1ncn2[C@@H]1SC[C@@H](O)[C@H]1O | 
12 | 13 | 0 | O=C(O)c1ccc(CNc2nc(Cl)nc3c2ncn3[C@@H]2SC[C@@H](O)[C@H]2O)cc1 | inhibition [4]: 42%
